The text below walks through data of patent US8716296B2 (Ingenium Pharmaceuticals GmbH, priority 2007, dated 2014).

Where a name gives a salt, the structure may show the parent alone.

One data set has as its system LPS induced THP-1 macrophages. Put plainly: In vitro THP-1 assay, model of cytokine inhibition. Type of data set: cell-based, human. The conditions noted are these: differentiated THP-1 cells, 60 min pre-incubation, LPS 4-48 h, ELISA, versus vehicle (DMSO). The method, then: The human THP-1 cell line can be utilized as an in vitro model of cytokine expression as mediated by Lipopolysaccharide (LPS) or Tumor Necrosis Factorα [TNFα].
Monocytic THP-1 cells (ATCC; TIB-202) can be differentiated into macrophage-like cells expressing pro-inflammatory cytokines like TNFα, IL6 and IL1β upon induction with LPS or by TNFα (autocrine induction) itself.
THP-1 cells are grown in modified RPMI-1640 medium (ATCC, Cat. No. 30-2001) supplemented with 10% FCS and 1% Pen/Strep. For cytokine inhibition assays, cells are seeded at a density of 5×10^5 cells/ml into 6-well plates in standard growth medium supplemented with 100 ng/ml PMA (Sigma, P1585) to induce differentiation into macrophage-like cells. After 24 hours, the medium is replaced with standard growth medium (without PMA) and the cells are incubated for another 48 hours to complete differentiation.
After 72 h of differentiation, the medium is replaced with serum free growth medium, and CDK-inhibiting compounds as well as reference compounds such as positive and negative controls, each dissolved in DMSO are added at concentrations ranging from 0.5 to 5 μM (final concentration of DMSO in the well is 0.1%). Cells are incubated for 60 min with compounds prior to stimulation with 100 ng/ml LPS (Sigma, L2630) for another 4-48 hours. Supernatants are collected and assayed immediately for cytokine expression, e.g. for TNFα, IL-6 and IL-1b using commercially available sandwich ELISA assays (eBioscience, Cat. No 88-7346, 88-7066, 88-7010) or kept frozen at […] until evaluation.
Concentrations of TNFα, IL6 and IL1β within the cell culture supernatants are measured by using commercial ELISA Kits (eBioscience) according to the manufacturers instructions.
CDK-inhibitory compounds #1A, 16A, 20A, and 25A were administered to differentiated THP-1 cells in triplicates as described above (see section 2.). After 60 min of pre-incubation with test or reference compound (SB203580, a p38 inhibitor and BMS345541, an IKK-inhibitor) alone, cells were stimulated with LPS. After incubation for 4-48 h, supernatants were collected and ELISA based determinations of cytokine supernatant concentrations were performed as described in section 3, supra.
Regarding `COc1ccccc1-c1cc(NC(=O)C(C)(C)C)ncn1` [Compound 25A, N-[6-(2-methoxy-phenyl)-pyrimidin-4-yl]-2,2-dimethyl-propionamide], the “IL6 protein concentration in the cell supernatant” value is given as “significant inhibitory effect” and the “TNFα protein concentration in the cell supernatant” value was “significant inhibitory effect”.

Tested on in a further data set: not given
Test: not given
Conditions: not given
`COc1ccc(F)cc1-c1cc(NC(=O)C2CCCCN2)ncn1` (centres unmarked) (as salt: TFA) [Example 37, N-(6-(5-fluoro-2-methoxyphenyl)pyrimidin-4-yl)piperidine-2-carboxamide*TFA] displayed a melting point of 122 °C. Take `COc1ccc(F)cc1-c1cc(NC(=O)C2CCC(N)CC2)ncn1` (centres unmarked) (as salt: TFA) [Example 38, 4-amino-N-(6-(5-fluoro-2-methoxyphenyl)pyrimidin-4-yl)cyclohexanecarboxamide*TFA]: the melting point is 162 °C.

For `COc1ccccc1-c1cc(NC(=O)[C@H]2CCCNC2)ncn1` [Compound 17A, (S)-Piperidine-3-carboxylic acid [6-(2-methoxy-phenyl)-pyrimidin-4-yl]-amide], the melting point is 163 to 165 °C.

Take `COc1ccccc1-c1cc(NC(=O)[C@@H]2CCCNC2)ncn1` [Compound 18A, (R)-Piperidine-3-carboxylic acid [6-(2-methoxy-phenyl)-pyrimidin-4-yl]-amide]: the melting point is 210 to 213 °C.

`COc1ccccc1-c1cc(NC(=O)C2CCCNC2)nc(C)n1` (centres unmarked) [Compound 22A, piperidine-3-carboxylic acid [6-(2-methoxy-phenyl)-2-methyl-pyrimidin-4-yl]-amide] returned a melting point of 229 to 230 °C. With `COc1ccc(F)cc1-c1cc(NC(=O)C2(C(N)=O)CC2)ncn1` [Example 10, N-(6-(5-fluoro-2-methoxyphenyl)pyrimidin-4-yl)cyclopropane-1,1-dicarboxamide], the melting point was found to be 190 °C. Same read-out and setting: the result for `CCCN1N=C(C(=O)Nc2cc(-c3cc(F)ccc3OC)ncn2)CCC1=O` [Example 11, N-(6-(5-fluoro-2-methoxyphenyl)pyrimidin-4-yl)-1,4,5,6-tetrahydro-6-oxo-1-propylpyridazine-3-carboxamide] reads 200 °C. On the same count and under the same terms, the value for `COc1cc(F)ccc1-c1cc(NC(=O)C2CCC(=O)NC2)ncn1` (centres unmarked) [Example 14, N-(6-(4-fluoro-2-methoxyphenyl)pyrimidin-4-yl)-6-oxopiperidine-3-carboxamide] was 148 °C. As for `CCOc1ccccc1-c1cc(NC(=O)C2CCC(=O)NC2)ncn1` (centres unmarked) [Example 15, N-(6-(2-ethoxyphenyl)pyrimidin-4-yl)-6-oxopiperidine-3-carboxamide], the melting point amounted to 117 °C. On the same count and under the same terms, the value for `CCOc1ccc(F)cc1-c1cc(NC(=O)C2CCC(=O)NC2)ncn1` (centres unmarked) [Example 16, N-(6-(2-ethoxy-5-fluorophenyl)pyrimidin-4-yl)-6-oxopiperidine-3-carboxamide] was 208 °C; that for `COc1ccc(F)cc1-c1cc(NC(=O)C2CCC(=O)NC2)ncn1` (centres unmarked) [Example 17, N-(6-(5-fluoro-2-methoxyphenyl)pyrimidin-4-yl)-6-oxopiperidine-3-carboxamide] was 245 °C; that for `COc1ccc(F)cc1-c1cc(NC(=O)C2CNC(=O)C2)ncn1` (centres unmarked) [Example 18, N-(6-(5-fluoro-2-methoxyphenyl)pyrimidin-4-yl)-5-oxopyrrolidine-3-carboxamide] was 222 °C. For `COc1ccc(F)cc1-c1cc(NC(=O)C2CC(=O)NC(=O)C2)ncn1` [Example 19, N-(6-(5-fluoro-2-methoxyphenyl)pyrimidin-4-yl)-2,6-dioxopiperidine-4-carboxamide], the melting point was determined as 160 °C.

In turn, `CCOc1cc(F)ccc1-c1cc(NC(=O)C2CCC(=O)NC2)ncn1` (centres unmarked) [Example 24, N-(6-(2-ethoxy-4-fluorophenyl)pyrimidin-4-yl)-6-oxopiperidine-3-carboxamide] displayed a melting point of 222 °C.

Take `CC(C)Oc1cc(F)ccc1-c1cc(NC(=O)C2CCC(=O)NC2)ncn1` (centres unmarked) [Example 25, N-(6-(4-fluoro-2-isopropoxyphenyl)pyrimidin-4-yl)-6-oxopiperidine-3-carboxamide]: the melting point came to 105 °C. As to `CC(C)Oc1ccc(F)cc1-c1cc(NC(=O)C2CCC(=O)NC2)ncn1` (centres unmarked) [Example 26, N-(6-(5-fluoro-2-isopropoxyphenyl)pyrimidin-4-yl)-6-oxopiperidine-3-carboxamide], the melting point turned out to be 236 °C. In the case of `COc1ccc(F)cc1-c1cc(NC(=O)C2CCOCC2)ncn1` [Example 39, N-(6-(5-fluoro-2-methoxyphenyl)pyrimidin-4-yl)-tetrahydro-2H-pyran-4-carboxamide], the melting point is 155 °C.

`COc1ccc(F)cc1-c1cc(NC(=O)C2CCNC(=O)C2)ncn1` (centres unmarked) [Example 40, N-(6-(5-fluoro-2-methoxyphenyl)pyrimidin-4-yl)-2-oxopiperidine-4-carboxamide] gave a melting point of 225 °C. On to `COc1ccc(F)cc1-c1cc(NC(=O)C2CCCNC2=O)ncn1` (centres unmarked) [Example 41, N-(6-(5-fluoro-2-methoxyphenyl)pyrimidin-4-yl)-2-oxopiperidine-3-carboxamide], for which the melting point was 180 °C. `COc1ccc(F)cc1-c1cc(NC(=O)[C@H]2CCCC[C@H]2N)ncn1.Cl` [Example 46, (1S,2R)-2-amino-N-(6-(5-fluoro-2-methoxyphenyl)pyrimidin-4-yl)cyclohexanecarboxamide*HCl] yielded a melting point of 272 °C. `COc1ccc(F)cc1-c1cc(NC(=O)c2cc(C)on2)ncn1` [Example 55, N-(6-(5-fluoro-2-methoxyphenyl)pyrimidin-4-yl)-5-methylisoxazole-3-carboxamide] displayed a melting point of 170 °C.

Compound `CCc1ccc(C(=O)Nc2cc(-c3cc(F)ccc3OC)ncn2)nc1` [Example 56, 5-ethyl-N-(6-(5-fluoro-2-methoxyphenyl)pyrimidin-4-yl)pyridine-2-carboxamide] displayed a melting point of 176 °C.

For the compound `CCc1cc(C(=O)Nc2cc(-c3cc(F)ccc3OC)ncn2)no1` [Example 58, 5-ethyl-N-(6-(5-fluoro-2-methoxyphenyl)pyrimidin-4-yl)isoxazole-3-carboxamide], the melting point was found to be 175 °C. As for `COc1ccc(F)cc1-c1cc(NC(=O)c2cnn3cc(C)cnc23)ncn1` [Example 59, N-(6-(5-fluoro-2-methoxyphenyl)pyrimidin-4-yl)-6-methylpyrazolo[1,5-a]pyrimidine-3-carboxamide], the melting point is 265 °C.

In turn, `COc1ccc(F)cc1-c1cc(NC(=O)c2cc(=O)[nH]c3ccccc23)ncn1` [Example 60, N-(6-(5-fluoro-2-methoxyphenyl)pyrimidin-4-yl)-1,2-dihydro-2-oxoquinoline-4-carboxamide] registered a melting point of 276 °C. The same measure, in the same setting: the result for `COc1ccc(F)cc1-c1cc(NC(=O)C(=O)c2ccccc2)ncn1` [Example 61, N-(6-(5-fluoro-2-methoxyphenyl)pyrimidin-4-yl)-2-oxo-2-phenylacetamide] reads 146 °C; that for `COc1ccc(F)cc1-c1cc(NC(=O)Cc2cc(F)c(F)cc2F)ncn1` [Example 62, N-(6-(5-fluoro-2-methoxyphenyl)pyrimidin-4-yl)-2-(2,4,5-trifluorophenyl)acetamide], 208 °C.
